This note sets out measurements from patent US6350749B1, “Aminoguanidine hydrazone derivatives, process for producing the same and drugs thereof” (Takeda Chemical Industries, Ltd., priority 1998, dated 2002).

One data set has as its target T1, Na—H exchange (Rattus norvegicus, UniProt P26431).
T1 construct: The blood was centrifuged at 3000 rpm for 5 seconds to obtain platelet rich plasma (PRP); from tissue; host or cells: platelets in platelet rich plasma from abdominal aortic blood of male Wistar rats
Put plainly: Rat platelet swelling in sodium propionate solution (light transmittance of PRP), inhibition of Na—H exchange. The format is cell-based. The note with it: 1 min, test compound 10^−7 M; rat platelet rich plasma; value 1 minute after sodium propionate solution; 100% = difference between 1% DMSO and HOE-642 (10^−5M); read-out: Inhibition Rate (%) [10^−7 M]. As for the experimental part:
Male Wistar rats (350-450 g) were anesthetized with sodium pentobarbital (50 mg/kg, i.p.). Using a disposable syringe pre-filled with 1.5 ml of 3.8% citric acid solution, 8.5 ml of blood was collected from the abdominal aorta. The blood was centrifuged at 3000 rpm for 5 seconds to obtain platelet rich plasma (PRP). The number of platelets in the PRP was counted by an automatic hemocytometer (Sysmex 2500, TOA Medical Electronics). The PRP was diluted with physiological saline to make the concentration of 40×10^4 platelets per 1 μl. A platelet aggregometer (Hematoracer, Niko Bioscience) was used for measurement of the platelet swelling. 200 μl of the PRP was poured into a cuvette and 600 μl of sodium propionate solution (Na propionate 135, glucose 10, Hepes 20, CaCl2 1, MgCl2 1; Units: mM; pH6.7) was added while stirring at 37° C. The change in the light transmittance of PRP which was an indicator of the platelet swelling was recorded on a plotter. The test compound was added 3 minutes before addition of the sodium propionate solution. The test compounds were dissolved in dimethylsulfoxide (DMSO).

Broadly, the inhibition is the percentage by which the read-out fell short of the control. Usually melting point stands for the temperature of the solid-liquid transition.

T1 sequence (P26431 whole entry): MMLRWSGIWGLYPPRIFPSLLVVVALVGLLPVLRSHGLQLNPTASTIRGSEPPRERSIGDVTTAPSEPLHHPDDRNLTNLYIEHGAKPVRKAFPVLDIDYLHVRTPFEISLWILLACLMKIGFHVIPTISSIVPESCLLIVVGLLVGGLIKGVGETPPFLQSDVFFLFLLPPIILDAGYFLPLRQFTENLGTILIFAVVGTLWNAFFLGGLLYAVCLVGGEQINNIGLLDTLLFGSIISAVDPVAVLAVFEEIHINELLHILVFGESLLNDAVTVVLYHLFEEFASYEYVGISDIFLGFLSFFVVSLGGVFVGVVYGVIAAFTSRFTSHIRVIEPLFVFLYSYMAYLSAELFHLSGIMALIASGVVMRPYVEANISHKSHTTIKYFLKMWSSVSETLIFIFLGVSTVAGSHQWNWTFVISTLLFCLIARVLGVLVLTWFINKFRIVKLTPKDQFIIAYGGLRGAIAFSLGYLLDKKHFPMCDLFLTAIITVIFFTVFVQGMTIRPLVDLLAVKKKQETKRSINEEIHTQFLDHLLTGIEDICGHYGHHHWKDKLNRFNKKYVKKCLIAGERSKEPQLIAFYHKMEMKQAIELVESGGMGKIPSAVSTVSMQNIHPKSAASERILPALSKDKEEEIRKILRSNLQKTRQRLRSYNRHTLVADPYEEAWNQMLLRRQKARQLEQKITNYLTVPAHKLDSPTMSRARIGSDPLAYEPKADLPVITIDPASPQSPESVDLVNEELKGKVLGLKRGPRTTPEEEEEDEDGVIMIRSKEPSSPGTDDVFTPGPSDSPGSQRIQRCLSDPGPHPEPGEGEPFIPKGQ

On to `Cc1ccnc2c1C(=NNC(=N)N)CC(c1cccs1)C2.Cl` (stereo not drawn) [Compound 70, 5-guanidinoimino-4-methyl-7-(2-thienyl)-5,6,7,8-tetrahydroquinoline hydrochloride], for which the melting point is 225 °C (dec.). In addition, the inhibition at 0.1 µM on Na—H exchange came out at 81%.
In the same order, the values of `Cc1ccsc1C1CC(=NNC(=N)N)c2c(C)ccnc2C1.Cl` (stereo not drawn) [Compound 73, 5-guanidinoimino-4-methyl-7-(3-methyl-2-thienyl)-5,6,7,8-tetrahydroquinoline hydrochloride] are 184 to 187 °C and 76%.
Turning to `CCc1cnnc2c1C(=NNC(=N)N)CC(c1ccccc1Cl)C2.CS(=O)(=O)O` (stereo not drawn) [Compound 133, 7-(2-chlorophenyl)-5-guanidinoimino-4-ethyl-5,6,7,8-tetrahydrocinnoline methanesulfonate], the melting point is 244 to 245 °C (dec.). Also, the inhibition at 0.1 µM on Na—H exchange amounted to 87%.
In the same order, the values of `COc1ccnc2c1C(=NNC(=N)N)CC(c1ccccc1Cl)C2.CS(=O)(=O)O` (stereo not drawn) [Compound 79, 7-(2-chlorophenyl)-5-guanidinoimino-4-methoxy-5,6,7,8-tetrahydroquinoline methanesulfonate] are 158 to 159 °C and 77%.
Take `Cc1ccnc2c1C(=NNC(=N)N)CC(c1sccc1Cl)C2.Cl` (stereo not drawn) [Compound 74, 7-(3-chloro-2-thienyl)-5-guanidinoimino-4-methyl-5,6,7,8-tetrahydroquinoline hydrochloride]: the melting point was 203 °C (dec.). Also, on Na—H exchange, the inhibition at 0.1 µM was 98%.
In the same order, the values of `Cc1cnnc2c1C(=NNC(=N)N)CC(c1cc(Cl)sc1Cl)C2.Cl` (stereo not drawn) [Compound 131, 7-(2,5-dichlorothiophen-3-yl)-5-guanidinoimino-4-methyl-5,6,7,8-tetrahydrocinnoline hydrochloride] are at least 300 °C and 88%.
In the same order, the values of `Cc1ccnc2c1C(=NNC(=N)N)CC(c1ccccc1O)C2.Cl` (stereo not drawn) [Compound 68, 5-guanidinoimino-7-(2-hydroxyphenyl)-4-methyl-5,6,7,8-tetrahydroquinoline hydrochloride] are 161 °C (dec.) and 70%.
Turning to `Cc1ccccc1C1CC(=NNC(=N)N)c2c(C)c[nH]c2C1.Cl` (stereo not drawn) [Compound 6, 4-guanidinoimino-3-methyl-6-(2-methylphenyl)-4,5,6,7-tetrahydroindole hydrochloride], the melting point is 187 °C (dec.). In addition, at Na—H exchange, the inhibition at 0.1 µM came out at 86%.
In the same order, the values of `Cc1ccnc2c1C(=NNC(=N)N)CC(c1ccsc1Br)C2.Cl` (stereo not drawn) [Compound 123, 7-(2-bromothiophen-3-yl)-5-guanidinoimino-4-methyl-5,6,7,8-tetrahydroquinoline hydrochloride] are 243 to 245 °C and 81%.
In the same order, the values of `CS(=O)(=O)O.Cc1ccnc2c1C(=NNC(=N)N)CC(c1cc(Cl)sc1Cl)C2` (single isomer, unassigned; (-)) [Compound 113, (−)-7-(2,5-dichlorothiophen-3-yl)-5-guanidinoimino-4-methyl-5,6,7,8-tetrahydroquinoline methanesulfonate] are 229 to 231 °C and 100%.
Regarding `Cc1n[nH]c2c1C(=NNC(=N)NO)CC(c1cc(Cl)sc1Cl)C2.Cl` (stereo not drawn) [Compound 128, 6-(2,5-dichlorothiophen-3-yl)-4-(1-hydroxyguanidin-3-yl)imino-3-methyl-4,5,6,7-tetrahydroindazole hydrochloride], the melting point is 190 to 192 °C (dec.). Moreover, on Na—H exchange, the inhibition at 0.1 µM is 78%.
As to `Cc1n[nH]c2c1C(=NNC(=N)N)CC(c1sccc1Cl)C2.Cl` (stereo not drawn) [Compound 119, 6-(3-chloro-2-thienyl)-4-guanidinoimino-3-methyl-4,5,6,7-tetrahydroindazole hydrochloride], the melting point is 204 °C (dec.). Besides, the inhibition at 0.1 µM at Na—H exchange amounted to 100%.
`Cc1cnnc2c1C(=NNC(=N)N)CC(c1ccccc1Cl)C2.Cl` (stereo not drawn) [Compound 129, 7-(2-chlorophenyl)-5-guanidinoimino-4-methyl-5,6,7,8-tetrahydrocinnoline hydrochloride] showed a melting point of 241 to 243 °C. For the same compound, on Na—H exchange, the inhibition at 0.1 µM was found to be 80%.
In the same order, the values of `CS(=O)(=O)O.Cc1ccnc2c1C(=NNC(=N)N)CC(c1ccccc1Cl)C2` (single isomer, unassigned; (-)) [Compound 64, (−)-7-(2-chlorophenyl)-5-guanidinoimino-4-methyl-5,6,7,8-tetrahydroquinoline methanesulfonate] are 194 to 195 °C and 86%.
In the same order, the values of `Cc1n[nH]c2c1C(=NNC(=N)NO)CC(c1ccccc1Cl)C2.Cl` (stereo not drawn) [Compound 93, 6-(2-chlorophenyl)-4-(1-hydroxyguanidin-3-yl)imino-3-methyl-4,5,6,7-tetrahydroindazole hydrochloride] are 234 to 235 °C (dec.) and 69%.
